Patent US20100160454A1, “ANTIMICROBIAL AGENTS, COMPOSITIONS AND PRODUCTS CONTAINING THE SAME, AND METHODS OF USING THE COMPOSITIONS AND PRODUCTS” (Eastman Chemical Company, priority 2008, published 2010)

Legend:
Test in all cases: Challenge testing against pathogenic fungi, growth rating in broth tubes
Type in all cases: cell-based
Set-up in all cases: key: 0: No visible growth; 1: Some growth in tube; 2: Moderate growth in tube; 3: Good growth in tube; 4: Extreme growth in tube
[1] = system: Trichophyton rubrum (ATCC 10218); details: Trichophyton rubrum
Protocol: (§1) Both Microsporum canis and Trichophyton rubrum were grown on Sabouraud dextrose broth, while Malassezia fufur was grown in Sabouraud dextrose broth supplemented with 2% (v/v) of olive oil and 0.2% (v/v) of Tween™ 80; incubation was at 22°±2° C. under continuous agitation by stirring for 10 days. The organisms were grown to a density of between 1.0×10^3 to 1.0×10^4 cfu/g. The actual inoculation cell density of these challenges were determined by diluting in sterile buffer water and (spread-plate method) plating for enumeration.
(§2) Challenge organisms were used to inoculate tubes of 1,4-CHDM-D90 test concentrations prepared in Sabouraud dextrose broth (or Sabouraud dextrose broth supplemented with olive oil-Tween™ 80 with M. furfur). The inoculations were in the amount of 1.5 mL aliquots of each culture with static incubation at 22±2° C. Subcultures were made at 3-, 14- and 30-day increments. All challenges were conducted in triplicate. In the case of M. canis, the growth response was assessed by the visual presence/absence of growth in the tubes; in the case of T. rubrum, a respiratory (redox) dye (0.2% w/v aqueous INT solution: 2-[4-iodophenyl)-3-4-nitrophenyl]-5-phenyl tetrazolium chloride) was added to the tubes, turning red if the organism was viable; and, finally, in the case of M. furfur, the growth response was assessed based upon pellicle formation in the tubes at the meniscus. The test formulations and challenge test results, as well as 30-day MICs (Minimum Inhibitory Concentration), are in Tables 7-9 for the three organisms using the following growth rating system:
(§3) • 0: No visible growth • 1: Some growth in tube • 2: Moderate growth in tube • 3: Good growth in tube • 4: Extreme growth in tube

[2] = system: Malassezia furfur (ATCC 96809); details: Malassezia furfur
Protocol: as §1, §2, §3

[3] = system: Microsporum canis (ATTC 9084); details: Microsporum canis
Protocol: as §1, §2, §3

[4] = test concentration 0.5%, 3 days
[5] = test concentration 0.5%, 14 days
[6] = test concentration 0.5%, 30 days
[7] = test concentration 1.25%, 3 days
[8] = test concentration 1.25%, 14 days
[9] = test concentration 1.25%, 30 days
[10] = test concentration 2.5%, 3 days
[11] = test concentration 2.5%, 14 days
[12] = test concentration 2.5%, 30 days

SMILES: OCC1CCC(CO)CC1 (stereo not drawn) [1,4-CHDM-D90, 1,4-cyclohexanedimethanol]
- Growth Rating [1, 4]: 1/1/1
- Growth Rating [1, 5]: 1/1/1
- Growth Rating [1, 6]: 1/1/1
- Growth Rating [1, 7]: 0/0/0
- Growth Rating [1, 8]: 0/0/0
- Growth Rating [1, 9]: 0/0/0
- Growth Rating [1, 10]: 0/0/0
- Growth Rating [1, 11]: 0/0/0
- Growth Rating [1, 12]: 0/0/0
- Growth Rating ([1]; test concentration 5%, 3 days): 1
- Growth Rating ([1]; test concentration 5%, 14 days): 0
- Growth Rating ([1]; test concentration 5%, 30 days): 0
- Growth Rating [2, 4]: 0
- Growth Rating [2, 5]: 1
- Growth Rating [2, 6]: 2
- Growth Rating [2, 7]: 0/0/0
- Growth Rating [2, 8]: 0/0/0
- Growth Rating [2, 9]: 0/0/0
- Growth Rating [2, 10]: 0/0/0
- Growth Rating [2, 11]: 0/0/0
- Growth Rating [2, 12]: 0/0/0
- Growth Rating ([2]; test concentration 5%, 3 days): 0/0/0
- Growth Rating ([2]; test concentration 5%, 14 days): 0/0/0
- Growth Rating ([2]; test concentration 5%, 30 days): 0/0/0
- Growth Rating [3, 4]: 2
- Growth Rating [3, 5]: 1
- Growth Rating [3, 6]: 1
- Growth Rating [3, 7]: 2
- Growth Rating [3, 8]: 1
- Growth Rating [3, 9]: 1
- Growth Rating [3, 10]: 2
- Growth Rating [3, 11]: 0
- Growth Rating [3, 12]: 0
- Growth Rating ([3]; test concentration 5%, 3 days): 0/0/0
- Growth Rating ([3]; test concentration 5%, 14 days): 0/0/0
- Growth Rating ([3]; test concentration 5%, 30 days): 0/0/0
